Reference: US11400059B2, “Treatment of pain and/or pain related symptoms associated with dysmenorrhea” (ALYRA BIOTECH PTY LTD, priority 2017, dated 2022)
“Also recorded” adds a separate entry of the source.

Legend:
[1] = test system: spinal glial cells in the dorsal horn of the spinal cord; assay: Spinal glial activation (astrocytes and microglia) after intrauterine LPS, overall statements; assay type: in vivo, mouse (Balb/C)
Excerpt: In the model, we investigated whether intrauterine LPS administration would cause an activation of the innate immune system in the uterus, replicating the inflammation often seen in dysmenorrhea, with possible association with pain. As inflammation is intrinsically linked with pain, we investigated whether activation of the innate immune system in the uterus would induce activation of spinal glial cells (central nervous system immune cells) in the dorsal horn of the spinal cord. Spinal glial cells include astrocytes and microglia. Activation of spinal glial cells was assessed using immunoflourescent staining with GFAP (astrocytes) or Iba1 (microglia). We then investigated if spinal glial activation is attenuated by the innate immune system blocking drugs amitriptyline and TAK-242.
(§1) Group 1 included twelve mice with 20 μl endotoxin-free saline introduced to the uterus on the first day of estrus and the subsequent day over 3 consecutive estrous cycles. Group 2 included twelve mice with LPS (100 μg/kg) instilled in the uterus on the first day of estrus and saline injected on the subsequent day over 3 consecutive estrous cycles. Group 3 included twelve mice with LPS (100 μg/kg) mixed with amitriptyline (20 μl of a 100 μM solution, equivalent to 28 μg/kg) instilled in the uterus on the first day of estrus, and amitriptyline alone instilled on the subsequent day over 3 consecutive estrous cycles. Group 4 included 14 mice with LPS (100 μg/kg) mixed with TAK-242 (20 μl of a 100 μM solution, equivalent to 36 μg/kg) instilled on the first day of estrus and TAK-242 alone instilled on the subsequent day over 3 consecutive estrous cycles.
Determination of spinal glial response was then assessed using immunofluorescence to confirm the validity of the experimental model.
Determination of the ability of TLR4 antagonists to block the activation of spinal astrocytes and microglia induced by intra-uterine instillation of LPS was assessed.
An assessment of glial activation was made using immunochemistry techniques including Ionized calcium binding adaptor molecule 1 (Iba1) expression and glial fibrillary-associated protein (GFAP) variability in the dorsal horn. Iba1 expression is a marker for microglial activation, and GFAP is a marker for astrocyte activation. The spinal cord levels chosen are consistent with the level of spinal afferent neurons associated with the pelvis, including the uterus in the mouse.

[2] = test system: spinal astrocytes (GFAP) in the dorsal horn of the spinal cord; assay: Spinal astrocyte activation (GFAP immunofluorescence) after intrauterine LPS; assay type: in vivo, mouse (Balb/C); conditions: 3 estrous cycles
Protocol: as §1
(§2) The investigation involved the instillation of 20 ul of an endotoxin-free 0.9% saline solution into the uterus of all animals on the first day of estrus and the subsequent day during 3 consecutive estrous cycles. Additional agents added to the saline were included according to the groups outlined below. Where LPS is administered, this was done on only 1 day per estrous cycle.
(§3) Where amitriptyline or TAK-242 was administered, this is on both the first day of estrus and the subsequent day.
(§4) The spinal cord was assessed using immunohistochemistry techniques across levels T10, T11, T12, T13, L1, L2, L3, L4, L5, L6, S1 and S2 for Groups 1 and 2, where T represents the thoracic segment of the spinal cord, L represents the lumbar segment of the spinal cord and S represents the sacral segment of the spinal cord.
as §4, with “levels” for “levels T10, T11,”, “L6, S” for “L6, S1”, “Groups 3” for “Groups 1”, “and 4,” for “and 2,”, “cord. […]” for “cord.”

[3] = test system: spinal microglia (Iba1) in the dorsal horn of the spinal cord; assay: Spinal microglial activation (Iba1 immunofluorescence) after intrauterine LPS; assay type: in vivo, mouse (Balb/C); conditions: 3 estrous cycles
Protocol: as §1, §2, §3, §4
as §4, with “levels” for “levels T10, T11,”, “L6, S” for “L6, S1”, “Groups 3” for “Groups 1”, “and 4,” for “and 2,”, “cord. […]” for “cord.”

[4] = test system: mice with intrauterine LPS; assay: Facial Grimace Scale 24 hours after final LPS stimulation; assay type: in vivo, mouse (Balb/C); conditions: intrauterine LPS vs saline, 24 hours after final LPS stimulation
Protocol: as §1
24 hours following the final LPS stimulation mice were subjected to assessment for the presence or absence of pain. This was assessed using the following tests:
Facial Grimace Scale: Photos of mice in their home cage will be taken, to score their facial Grimace and this was quantified and compared between groups. For further information see: http://www.nature.com/nmeth/journal/v7/n6/full/nmeth.1455.html.

hNOD1 = target: T1, hNOD1 (Homo sapiens, UniProt Q9Y239); assay: Human TLR/NLR agonist screening, NF-κB SEAP reporter in HEK293 cells; assay type: cell-based; conditions: agonist mode, Control+ = C12-iE-DAP 1 μg/mL
T1 construct: expressed in transfected cells; host or cells: HEK293
T1 sequence (Q9Y239 1-953): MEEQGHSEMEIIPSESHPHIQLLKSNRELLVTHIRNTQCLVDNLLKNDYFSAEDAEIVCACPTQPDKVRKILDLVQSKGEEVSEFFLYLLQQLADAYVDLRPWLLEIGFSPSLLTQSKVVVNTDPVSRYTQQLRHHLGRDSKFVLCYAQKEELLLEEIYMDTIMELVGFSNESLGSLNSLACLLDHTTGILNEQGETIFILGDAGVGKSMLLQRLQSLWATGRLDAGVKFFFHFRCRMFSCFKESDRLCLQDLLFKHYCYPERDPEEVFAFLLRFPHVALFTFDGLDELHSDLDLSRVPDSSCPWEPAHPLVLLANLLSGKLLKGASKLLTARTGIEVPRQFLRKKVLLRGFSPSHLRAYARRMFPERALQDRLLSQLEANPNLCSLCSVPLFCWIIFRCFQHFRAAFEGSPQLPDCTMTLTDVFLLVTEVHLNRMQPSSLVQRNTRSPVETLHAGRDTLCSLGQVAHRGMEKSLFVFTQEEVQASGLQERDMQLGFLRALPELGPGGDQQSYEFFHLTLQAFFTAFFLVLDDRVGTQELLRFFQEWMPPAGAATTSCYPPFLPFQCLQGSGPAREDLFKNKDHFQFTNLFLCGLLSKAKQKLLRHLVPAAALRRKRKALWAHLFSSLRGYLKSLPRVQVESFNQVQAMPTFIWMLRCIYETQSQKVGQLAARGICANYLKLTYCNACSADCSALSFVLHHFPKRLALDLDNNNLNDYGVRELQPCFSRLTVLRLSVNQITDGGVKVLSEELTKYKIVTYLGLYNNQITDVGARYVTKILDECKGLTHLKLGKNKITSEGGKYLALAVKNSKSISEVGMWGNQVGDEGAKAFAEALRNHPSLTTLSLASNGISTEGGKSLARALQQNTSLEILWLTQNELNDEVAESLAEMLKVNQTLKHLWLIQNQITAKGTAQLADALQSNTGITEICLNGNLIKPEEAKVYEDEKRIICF
Protocol: (§5) Toll-Like Receptor (TLR), NOD-Like Receptor (NLR) and C-Type Lectin Receptor (CLR) stimulation were tested by assessing NF-κB activation in HEK293 cells expressing a given TLR, NLR or CLR. The activity of the test articles was tested at one concentration and compared to control ligands. These steps were performed in triplicate.
hNOD1: C12-iE-DAP at 1 μg/mL Antagonist: 100 ng/mL.
(§6) In a 96-well plate (200 μL total volume) containing the appropriate cells (50,000-75,000 cells/well), 20 μL of the test article or the positive control ligand was added to the wells. For the antagonist assay, the test article was incubated with the cells, at 37° C. with 5% CO2, for 30 minutes prior to the addition of the positive control ligand to the wells. The media added to the wells was designed for the detection of NF-κB induced SEAP expression. After a 16-24 hr incubation the optical density (OD) was read at 650 nm on a Molecular Devices SpectraMax 340PC absorbance detector.
(§7) The fold induction (ratio of average induced value to average non-induced value) results were as follows: […]

hTLR9 = target: T2, hTLR9 (Homo sapiens, UniProt Q9NR96); assay: as above; assay type: cell-based; conditions: agonist mode, Control+ = CpG ODN 2006 1 μg/mL
T2 construct: expressed in transfected cells; host or cells: HEK293
T2 sequence (Q9NR96 26-1032): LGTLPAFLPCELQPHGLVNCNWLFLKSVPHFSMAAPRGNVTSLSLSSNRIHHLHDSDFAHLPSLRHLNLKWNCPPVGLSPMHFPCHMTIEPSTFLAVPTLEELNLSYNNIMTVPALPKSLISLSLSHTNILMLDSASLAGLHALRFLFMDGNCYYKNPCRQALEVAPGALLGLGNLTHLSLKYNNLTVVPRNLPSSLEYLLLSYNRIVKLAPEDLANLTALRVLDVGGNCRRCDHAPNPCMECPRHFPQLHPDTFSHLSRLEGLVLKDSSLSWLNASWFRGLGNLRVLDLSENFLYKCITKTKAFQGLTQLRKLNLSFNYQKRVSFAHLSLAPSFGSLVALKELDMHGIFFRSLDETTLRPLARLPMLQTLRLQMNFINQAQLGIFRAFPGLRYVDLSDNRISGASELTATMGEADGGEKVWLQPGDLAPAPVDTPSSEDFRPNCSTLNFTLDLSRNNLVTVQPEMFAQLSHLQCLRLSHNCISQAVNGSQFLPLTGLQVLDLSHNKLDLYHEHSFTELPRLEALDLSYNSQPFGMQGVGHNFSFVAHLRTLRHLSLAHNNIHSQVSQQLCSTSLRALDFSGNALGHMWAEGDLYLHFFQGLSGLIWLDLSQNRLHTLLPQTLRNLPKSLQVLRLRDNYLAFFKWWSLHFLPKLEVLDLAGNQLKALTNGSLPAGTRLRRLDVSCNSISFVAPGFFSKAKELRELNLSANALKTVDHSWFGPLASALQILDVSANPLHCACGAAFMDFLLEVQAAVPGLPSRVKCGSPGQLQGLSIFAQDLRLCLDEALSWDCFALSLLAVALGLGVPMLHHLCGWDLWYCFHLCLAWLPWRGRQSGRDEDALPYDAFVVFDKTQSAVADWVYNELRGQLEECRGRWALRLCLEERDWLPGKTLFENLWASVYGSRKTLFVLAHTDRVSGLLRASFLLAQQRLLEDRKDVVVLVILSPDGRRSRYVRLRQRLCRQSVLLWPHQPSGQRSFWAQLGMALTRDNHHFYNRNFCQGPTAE
Protocol: as §5
hTLR9: CpG ODN 2006 at 1 μg/mL Antagonist: 500 ng/mL.
as §6, §7

hTLR5 = target: T3, hTLR5 (Homo sapiens, UniProt O60602); assay: as above; assay type: cell-based; conditions: agonist mode, Control+ = S. typhimurium flagellin 100 ng/mL
T3 construct: expressed in transfected cells; host or cells: HEK293
T3 sequence (O60602 21-858): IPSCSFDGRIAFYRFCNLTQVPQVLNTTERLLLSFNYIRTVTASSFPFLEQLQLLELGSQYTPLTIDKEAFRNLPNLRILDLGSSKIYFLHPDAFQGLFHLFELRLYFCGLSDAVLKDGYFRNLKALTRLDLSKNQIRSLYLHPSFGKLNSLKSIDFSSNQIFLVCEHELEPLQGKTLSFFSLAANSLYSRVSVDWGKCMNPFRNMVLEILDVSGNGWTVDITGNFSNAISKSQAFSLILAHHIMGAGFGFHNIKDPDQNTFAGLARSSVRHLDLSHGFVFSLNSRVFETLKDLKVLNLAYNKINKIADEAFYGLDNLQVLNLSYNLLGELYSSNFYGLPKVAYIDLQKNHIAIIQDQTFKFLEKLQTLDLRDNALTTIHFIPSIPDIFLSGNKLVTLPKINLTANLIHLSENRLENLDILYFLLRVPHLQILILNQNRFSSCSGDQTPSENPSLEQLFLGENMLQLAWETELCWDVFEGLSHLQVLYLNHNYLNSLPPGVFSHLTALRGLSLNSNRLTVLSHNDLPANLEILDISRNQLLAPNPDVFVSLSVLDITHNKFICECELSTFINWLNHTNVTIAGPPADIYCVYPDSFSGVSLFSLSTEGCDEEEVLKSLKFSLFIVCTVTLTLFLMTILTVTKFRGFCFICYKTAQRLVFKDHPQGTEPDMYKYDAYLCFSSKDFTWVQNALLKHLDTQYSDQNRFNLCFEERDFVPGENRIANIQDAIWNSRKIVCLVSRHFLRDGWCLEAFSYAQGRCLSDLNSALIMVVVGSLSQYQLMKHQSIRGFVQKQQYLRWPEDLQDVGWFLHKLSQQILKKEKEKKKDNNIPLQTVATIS
Protocol: as §5
hTLR5: S. typhimurium flagellin at 100 ng/mL Antagonist: 50 ng/mL.
as §6, §7

[5] = intrauterine, mixed with LPS 100 μg/kg on first day of estrus and alone the subsequent day, amitriptyline 28 μg/kg, TAK-242 36 μg/kg, vs LPS

## CCOC(=O)C1=CCCC[C@H]1S(=O)(=O)Nc1ccc(F)cc1Cl [TAK-242]
[1]; intrauterine co-administration with LPS
  spinal glial activation induced by intrauterine LPS: prevented; also recorded: block spinal glial activation
[1]; mouse model, intrauterine administration
  dose effective at reducing spinal glial activation: 0.036 mg/kg
[2]; [5]
  astrocytic reactivity (GFAP staining), impact of intrauterine LPS at multiple levels of the spinal cord: reduced astrocytic reactivity to below basal levels
[3]; [5]
  microglial reactivity (Iba1 staining), impact of intrauterine LPS at multiple levels of the spinal cord: reduced microglia reactivity to basal levels

## lipopolysaccharide [LPS]
[1]; intra-uterine LPS
  activation of spinal glial cells (astrocytes and microglia): induced activation of spinal astrocytes and microglia; also recorded: activate spinal glial cells
[2]; intrauterine LPS 100 μg/kg once per cycle, vs saline controls
  GFAP astrocyte staining: increase in GFAP astrocyte staining through widespread levels of the spinal cord; also recorded: substantial increase in GFAP astrocyte staining
[4]
  presentation of Grimace behaviours: significant increase in the presentation of Grimace behaviours
[3]; intrauterine LPS 100 μg/kg once per cycle, vs saline
  Iba1 microglial staining: localised increase in Iba1 microglial staining

## CCCCCCCCCCCC(=O)N[C@H](CCC(=O)NC(CCCC(N)C(=O)O)C(=O)O)C(=O)O (some centres unmarked) [C12-iE-DAP]
hNOD1
  Fold induction (ratio of average induced value to average non-induced value): 20

## CpG ODN 2006
hTLR9
  Fold induction (ratio of average induced value to average non-induced value): 18

B1: S. typhimurium flagellin: hTLR5 control ligand (protein, UniProt P06179 2-495, looked up)
Flagellin: AQVINTNSLSLLTQNNLNKSQSALGTAIERLSSGLRINSAKDDAAGQAIANRFTANIKGLTQASRNANDGISIAQTTEGALNEINNNLQRVRELAVQSANSTNSQSDLDSIQAEITQRLNEIDRVSGQTQFNGVKVLAQDNTLTIQVGANDGETIDIDLKQINSQTLGLDTLNVQQKYKVSDTAATVTGYADTTIALDNSTFKASATGLGGTDQKIDGDLKFDDTTGKYYAKVTVTGGTGKDGYYEVSVDKTNGEVTLAGGATSPLTGGLPATATEDVKNVQVANADLTEAKAALTAAGVTGTASVVKMSYTDNNGKTIDGGLAVKVGDDYYSATQNKDGSISINTTKYTADDGTSKTALNKLGGADGKTEVVSIGGKTYAASKAEGHNFKAQPDLAEAAATTTENPLQKIDAALAQVDTLRSDLGAVQNRFNSAITNLGNTVNNLTSARSRIEDSDYATEVSNMSRAQILQQAGTSVLAQANQVPQNVLSLLR
hTLR5
  Fold induction (ratio of average induced value to average non-induced value): 18
